Measured values published in US20090291964A1, “Potentiators of Antibacterial Activity” (priority 2003, published 2009).
Where two headings read alike, the source gives them in different places.

How the values were obtained:
Format in all cases: cell-based
S. aureus ATCC 29213 [1] = experiment: Minimal effective concentration (MEC) of EPI for EtBr; conditions: S. aureus ATCC 29213; lowest amount of EPI which produces the maximum effect on the MIC of ethidium bromide
Description: The MEC was determined as the minimal concentration of EPI that produced the maximal reduction in substrate MIC.
The minimum effective concentration (MEC) for inhibition of EtBr efflux was determined in S. aureus, E. faecalis and S. pneumoniae for A-106 and C-9; reserpine was used as a comparator (Table 1).

S. aureus ATCC 29213 [2] = experiment: MIC by NCCLS microdilution, antibacterial agents with and without EPI; conditions: for MIC of EPI: EPI alone; for Fold-reduction in EtBr MIC / MIC of EtBr with EPI: EPIs used at the MEC, except VX-710 at 100 μg/ml; for MIC: Staphylococcus aureus; for MIC in the presence of 4X MEC of EPI, VX-710: VX-710 100 μg/ml; for MIC in the presence of 4X MEC of EPI, VX-853: VX-853 6.25 μg/ml; for MIC in the presence of 4X MEC of EPI, reserpine: reserpine 25 μg/ml
Description: 3% sterile laked horse blood (Quad Five, Ryegate, Mont.) was added to assays for E. faecalis and S. Pneumoniae. A final concentration of 1% DMSO was present in all assays. […]
A-106 and C-9 were tested at their respective MECs in combination with a variety of different classes of antibiotics against S. aureus ATCC 29213 (Table 2).

S. aureus SA-8325-4 = experiment: MIC of fluoroquinolones with and without EPI; conditions: Staphylococcus aureus, SA83254, read-out: MIC of antibacterial agent, EPI none
From the text: (§1) A variety of strains may be used in these experiments, including, but not limited to, S. aureus ATCC 29213, E. faecalis ATCC 29212, and S. pneumoniae, S. aureus strains SA-1199, SA-1199B, SA-8325-4, and SA-K2068. S. aureus ATCC 29213, E. faecalis ATCC 29212, and S. pneumoniae ATCC 10015 were obtained from the American Type Culture Collection (Manassas, Va.). S. aureus strains SA-1199 (clinical isolate, susceptible), SA-1199B (SA-1199, NorA overproducing, also has A116E GrlA mutation), SA-8325-4 (NCTC 8325 cured of prophages), SA-K2068 (SA-8325-4, non-NorA multidrug efflux pump overproducing mutation) were obtained from Glenn Kaatz (Kaatz et al., “Identification and characterization of a novel efflux-related multidrug resistance phenotype in Staphylococcus aureus”, J. Antimicrob. Chemother. 50:833-838 (2002); 1993; Kaatz et al., “Phenothiazines and thioxanthenes inhibit multidrug efflux pump activity in Staphylococcus aureus”, Antimicrob. Agents Chemother. 47:719-726, Kaatz et al., “Efflux-mediated fluoroquinolone resistance in Staphylococcus aureus. Antimicrob. Agents Chemother.”, 37:1086-1094, 1993)).
(§2) 3% sterile laked horse blood (Quad Five, Ryegate, Mont.) was added to assays for E. faecalis and S. Pneumoniae. A final concentration of 1% DMSO was present in all assays.

[3] = tested on: S. aureus SA-1199 (clinical isolate, susceptible); experiment: MIC of fluoroquinolones with and without EPI; conditions: Staphylococcus aureus, read-out: MIC of antibacterial agent, EPI none
From the text: as §1, §2

[4] = tested on: S. aureus SA-K2068 (non-NorA multidrug efflux pump overproducing); experiment: microbe, parasite or virus in culture; conditions: Staphylococcus aureus
From the text: as §1, §2
(§3) Recent more hydrophobic fluoroquinolones such as gatifloxacin and moxifloxacin are less well recognized by NorA; however, recently one other pump in S. aureus has been described which also recognizes hydrophobic fluoroquinolones (Kaatz et al. 2002, supra). To investigate the potential of A-106 and C-9 to block the efflux of several fluoroquinolones in cells with constituitively over-expressed efflux pumps, we used S. aureus strains SA-1199B and K2068 (Table 3). […] Kaatz et al., “Phenothiazines and thioxanthenes inhibit multidrug efflux pump activity in Staphylococcus aureus”, Antimicrob. Agents Chemother. 47:719-726 (2003).

[5] = tested on: S. aureus SA-1199B (NorA overproducing); experiment: MIC of fluoroquinolones with and without EPI; conditions: Staphylococcus aureus
From the text: as §1, §2, §3

E. faecalis ATCC 29212 = experiment: MIC by NCCLS microdilution, EtBr/EPI with and without EPI; conditions: Enterococcus faecalis, ATCC29212, read-out: MIC of EtBr without EPI
Description: as §2
(§4) EtBr is a general substrate for many different efflux pumps in bacteria. Markham et al., “Multiple Novel Inhibitors of the NorA Multidrug Transporter of Staphylococcus aureus”, Antimicrob. Agents Chemother. 43:2404-2408 (1999). Since EtBr is a non-specific DNA intercalator, the only known mechanism of resistance to EtBr is via efflux. Markham et al., “Multiple Novel Inhibitors of the NorA Multidrug Transporter of Staphylococcus aureus”, Antimicrob. Agents Chemother. 43:2404-2408 (1999).

S. pneumoniae ATCC 10015 = experiment: as above; conditions: Streptococcus pneumoniae, ATCC10015, read-out: MIC of EtBr without EPI
Description: as §2, §4

[6] = tested on: E. faecalis clinical isolates; experiment: MIC90 studies: fluoroquinolone susceptibility of clinical isolate panel with EPI; conditions: Enterococcus faecalis, read-out: MIC, No EPI
Description: (§5) Susceptibility studies with large panels of resistant clinical isolates were performed at Focus Technologies, Herndon, Va. according to NCCLS protocols (National Committee for Clinical Laboratory Standards, supra).
(§6) To be useful in combination therapy, an EPI needs to substantially reduce the MIC of an antibiotic to within the range of clinical susceptibility. Because many different resistance mechanisms are often present in clinical isolates, including the likelihood of multiple target-based mutations in addition to efflux mutations, the barrier to antibiotic efficacy is much greater. […] Oxacillin and vancomycin MICs were also determined to identify which isolates were methicillin-resistant (S. aureus) and vancomycin-resistant (E. faecalis).

[7] = tested on: S. aureus clinical isolates; experiment: as above; conditions: Staphylococcus aureus
Description: as §5, §6

[8] = read-out: MIC of Gatifloxacin without EPI
[9] = read-out: MIC of antibacterial agent, EPI none
[10] = ATCC29213, read-out: MIC of antibacterial agent, EPI none, S. aureus ATCC 29213, no EPI
[11] = ATCC29213, read-out: MIC, No EPI, antibacterial agent alone

For `COc1cc(C(=O)C(=O)N2CCCCC2C(=O)OC(CCCc2ccccc2)CCCc2cccnc2)cc(OC)c1OC` (stereo not shown) [VRT-010367], the “MEC of EPI” value (S. aureus ATCC 29213 [1]) was 1.6 µg/mL, the “MIC of EPI” value (S. aureus ATCC 29213 [2]; S. aureus ATCC 29213) was greater than 50 µg/mL and the “Fold-reduction in EtBr MIC” value (S. aureus ATCC 29213 [2]; S. aureus ATCC 29213) was 2. The “MIC of EtBr with EPI” value (S. aureus ATCC 29213 [2]; S. aureus ATCC 29213) was 3.1 µg/mL.

`COc1c(N2CCNC(C)C2)c(F)cc2c(=O)c(C(=O)O)cn(C3CC3)c12` (stereo not shown) [gatifloxacin, reference compound] showed an MIC (S. aureus SA-8325-4) of 0.125 µg/mL, an MIC [3] of 0.063 µg/mL and an MIC [4, 8] of 1 µg/mL. The MIC [4, 9] was 1 µg/mL, the MIC (S. aureus ATCC 29213 [2]; ATCC29213, read-out: MIC of Gatifloxacin without EPI, S. aureus ATCC 29213 (Table 4)) was 0.125 µg/mL and the MIC (S. aureus ATCC 29213 [2]; [10]) was 0.063 µg/mL. For the same compound, the MIC (S. aureus ATCC 29213 [2]; [11]) was 0.125 µg/mL, the “MIC in the presence of 4X MEC of EPI, VX-710” value (“MIC in the presence … VX-710” for short) (S. aureus ATCC 29213 [2]) was 0.125 µg/mL and the “MIC in the presence of 4X MEC of EPI, VX-853” value (“MIC in the presence … VX-853” for short) (S. aureus ATCC 29213 [2]) was 0.125 µg/mL. The “MIC in the presence of 4X MEC of EPI, reserpine” value (“MIC in the presence … reserpine” for short) (S. aureus ATCC 29213 [2]) was 0.125 µg/mL, the MIC [5, 8] was 0.5 µg/mL and the MIC [5, 9] was 0.5 µg/mL.

With `CC[n+]1c(-c2ccccc2)c2cc(N)ccc2c2ccc(N)cc21` [EtBr, Ethidium bromide] the MIC (E. faecalis ATCC 29212) was 6.3 µg/mL, the MIC (S. pneumoniae ATCC 10015) was 2 µg/mL and the MIC (S. aureus SA-8325-4) was 3.1 µg/mL. The MIC [3] was 6.2 µg/mL, the MIC [4, 9] was 12.5 µg/mL and the “MIC of EtBr without EPI” value (S. aureus ATCC 29213 [2]; S. aureus ATCC 29213) was 6.2 µg/mL. The MIC (S. aureus ATCC 29213 [2]; ATCC29213, read-out: MIC of EtBr without EPI, S. aureus ATCC 29213) was 6.3 µg/mL, the MIC (S. aureus ATCC 29213 [2]; [10]) was 6.2 µg/mL and the MIC (S. aureus ATCC 29213 [2]; [11]) was 6.2 µg/mL. The “MIC in the presence … VX-710” value (S. aureus ATCC 29213 [2]) was 0.2 µg/mL, the “MIC in the presence … VX-853” value (S. aureus ATCC 29213 [2]) was 1.6 µg/mL and the “MIC in the presence … reserpine” value (S. aureus ATCC 29213 [2]) was 1.6 µg/mL. The MIC [5, 9] was 25 µg/mL.

`COc1cc(C(=O)C(=O)N(C)C(Cc2ccccc2)C(=O)N(Cc2ccccc2)C(CCc2ccncc2)CCc2ccncc2)cc(OC)c1OC` (stereo not shown) [VRT-013661] was tested, and the “MEC of EPI” value (S. aureus ATCC 29213 [1]) was 3.1 µg/mL, the “MIC of EPI” value (S. aureus ATCC 29213 [2]; S. aureus ATCC 29213) was greater than 100 µg/mL and the “Fold-reduction in EtBr MIC” value (S. aureus ATCC 29213 [2]; S. aureus ATCC 29213) was 4. For the same compound, the “MIC of EtBr with EPI” value (S. aureus ATCC 29213 [2]; S. aureus ATCC 29213) was 1.6 µg/mL.

With `CCn1cc(C(=O)O)c(=O)c2cc(F)c(N3CCNCC3)cc21` [norfloxacin, reference compound] the MIC ([6]; E. faecalis clinical isolate 1) was 4 µg/mL, the MIC ([6]; E. faecalis clinical isolate 2) was 4 µg/mL and the MIC ([6]; E. faecalis clinical isolate 3) was 128 µg/mL. The MIC ([6]; E. faecalis clinical isolate 4) was 128 µg/mL, the MIC ([6]; E. faecalis clinical isolate 5) was 64 µg/mL and the MIC ([6]; E. faecalis clinical isolate 6) was 2 µg/mL. For the same compound, the MIC ([6]; E. faecalis clinical isolate 7) was 2 µg/mL, the MIC ([6]; E. faecalis clinical isolate 8) was 128 µg/mL and the MIC ([6]; E. faecalis clinical isolate 9) was 4 µg/mL. It also gave an MIC ([6]; E. faecalis clinical isolate 10) of 64 µg/mL, an MIC ([6]; E. faecalis clinical isolate 11) of 128 µg/mL and an MIC ([6]; E. faecalis clinical isolate 12) of 2 µg/mL. For the same compound, the MIC ([6]; E. faecalis clinical isolate 13) was 2 µg/mL, the MIC ([6]; E. faecalis clinical isolate 14) was 4 µg/mL and the MIC ([6]; E. faecalis clinical isolate 15) was 4 µg/mL. The MIC ([6]; E. faecalis clinical isolate 16) was 4 µg/mL, the MIC ([6]; E. faecalis clinical isolate 17) was 4 µg/mL and the MIC ([6]; E. faecalis clinical isolate 18) was 128 µg/mL. For the same compound, the MIC ([6]; E. faecalis clinical isolate 19) was 4 µg/mL, the MIC ([6]; E. faecalis clinical isolate 20) was 4 µg/mL and the MIC ([6]; E. faecalis clinical isolate 21) was 2 µg/mL. It also gave an MIC ([6]; E. faecalis clinical isolate 22) of 128 µg/mL, an MIC ([6]; E. faecalis clinical isolate 23) of 64 µg/mL and an MIC ([6]; E. faecalis clinical isolate 24) greater than 256 µg/mL. The MIC ([6]; E. faecalis clinical isolate 25) was 128 µg/mL, the MIC ([6]; E. faecalis clinical isolate 26) was greater than 256 µg/mL and the MIC ([7]; S. aureus clinical isolate 1) was 16 µg/mL. For the same compound, the MIC ([7]; S. aureus clinical isolate 2) was 1 µg/mL, the MIC ([7]; S. aureus clinical isolate 3) was 1 µg/mL and the MIC ([7]; S. aureus clinical isolate 4) was 256 µg/mL. It also gave an MIC ([7]; S. aureus clinical isolate 5) of 1 µg/mL, an MIC ([7]; S. aureus clinical isolate 6) of 32 µg/mL and an MIC ([7]; S. aureus clinical isolate 7) of 2 µg/mL. It also gave an MIC ([7]; S. aureus clinical isolate 8) of 4 µg/mL, an MIC ([7]; S. aureus clinical isolate 9) of 1 µg/mL and an MIC ([7]; S. aureus clinical isolate 10) of 64 µg/mL. The MIC ([7]; S. aureus clinical isolate 11) was 64 µg/mL, the MIC ([7]; S. aureus clinical isolate 12) was 1 µg/mL and the MIC ([7]; S. aureus clinical isolate 13) was 256 µg/mL. It also gave an MIC ([7]; S. aureus clinical isolate 14) of 256 µg/mL, an MIC ([7]; S. aureus clinical isolate 15) of 256 µg/mL and an MIC (S. aureus SA-8325-4) of 1 µg/mL. For the same compound, the MIC [3] was 0.5 µg/mL, the MIC [4, 9] was 8 µg/mL and the MIC (S. aureus ATCC 29213 [2]; ATCC29213, antibacterial agent alone, read-out: MIC, No EPI) was 1 µg/mL. The MIC (S. aureus ATCC 29213 [2]; [10]) was 0.5 µg/mL, the “MIC in the presence … VX-710” value (S. aureus ATCC 29213 [2]) was 0.25 µg/mL and the “MIC in the presence … VX-853” value (S. aureus ATCC 29213 [2]) was 0.5 µg/mL. For the same compound, the “MIC in the presence … reserpine” value (S. aureus ATCC 29213 [2]) was 0.5 µg/mL.
